# Biological target: T1, KRAS G12C 1-169, his-tagged protein, GDP-loaded (Homo sapiens, UniProt P01116, G12C)
# T1 construct: KRAS G12C 1-169, his-tagged protein, GDP-loaded; His tag
# Assay: Biochemical assay: covalent modification of KRAS G12C, analysed by mass spectrometry (RapidFire/TOF or Q-Exactive); also: time not given here
# Assay type: binding
# Conditions: Modification activity, modification percentage from MS peak intensities
# Outline: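 GDP-loaded His-tagged KRAS G12C 1-169 (2 μM or 0.5 μM in 20 mM Hepes, 150 mM NaCl, 1 mM MgCl2) reacted with compound at 32 μM or 8 μM final (2% DMSO) for a set time, then quenched with formic acid. Percent covalent modification from deconvoluted intact-protein MS peak intensities (RapidFire/TOF or LC-Q Exactive).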
row,SMILES,Binding %
1,"Cc1ccc2[nH]ncc2c1-c1nc(N2CCOCC2)nc(N2CCC3(CN(C(=O)/C=C/CN(C)C)C3)C2)c1C#N [Compound I-85, (E)-4-(2-(4-(dimethylamino)but-2-enoyl)-2,6-diazaspiro[3.4]octan-6-yl)-6-(5-methyl-1H-indazol-4-yl)-2-morpholinopyrimidine-5-carbonitrile]",+ (+ indicates binding activity greater than 0% and up to 50%)
2,"C=CC(=O)N1CC2(CCN(c3nc(OCCCN(C)C)nc(-c4c(C)ccc5[nH]ncc45)c3C#N)CC2)C1 [Compound I-86, 4-(2-acryloyl-2,7-diazaspiro[3.5]nonan-7-yl)-2-(3-(dimethylamino)pro-poxy)-6-(5-methyl-1H-indazol-4-yl)pyrimidine-5-carbonitrile]",++ (++ indicates binding activity from 50 to 85%)
3,"C=CC(=O)N1CC2(CCN(c3nc(OCCN4CC(F)(F)C4)nc(-c4c(C)ccc5[nH]ncc45)c3C#N)C2)C1 [Compound I-87, 4-(2-acryloyl-2,6-diazaspiro[3.4]octan-6-yl)-2-(2-(3,3-difluoroazetidin-1-yl)ethoxy)-6-(5-methyl-1H-indazol-4-yl)pyrimidine-5-carbonitrile]",++ (++ indicates binding activity from 50 to 85%)
4,"C=CC(=O)N1CC2(CCN(c3nc(N4CCOCC4)nc(N4CCCc5ccccc54)c3C#N)C2)C1 [Compound I-88, 4-(2-acryloyl-2,6-diazaspiro[3.4]octan-6-yl)-6-(3,4-dihydroquinolin-1(2H)-yl)-2-morpholinopyrimidine-5-carbonitrile]",+ (+ indicates binding activity greater than 0% and up to 50%)
5,"C=CC(=O)N1CC2(CCN(c3nc(N4CCOCC4)nc(N4CC(O)Cc5ccccc54)c3C#N)C2)C1 (stereo not drawn) [Compound I-89, 4-(2-acryloyl-2,6-diazaspiro[3.4]octan-6-yl)-6-(3-hydroxy-3,4-dihydroquinolin-1(2H)-yl)-2-morpholinopyrimidine-5-carbonitrile]",+ (+ indicates binding activity greater than 0% and up to 50%)
6,"C=CC(=O)N1CC2(CCN(c3nc(OC[C@@H]4CCCN4C)nc(-c4n[nH]c5ccccc45)c3C#N)C2)C1 [Compound I-90, (S)-4-(2-acryloyl-2,6-diazaspiro[3.4]octan-6-yl)-6-(1H-indazol-3-yl)-2-((1-methylpyrrolidin-2-yl)methoxy)pyrimidine-5-carbonitrile]",+ (+ indicates binding activity greater than 0% and up to 50%)
7,"C=CC(=O)N1CC2(CCN(c3nc(OC[C@@H]4CN(C)CCO4)nc(-c4c(C)ccc5[nH]ncc45)c3C#N)C2)C1 [Compound I-91, 4-(2-acryloyl-2,6-diazaspiro[3.4]octan-6-yl)-6-(5-methyl-1H-indazol-4-yl)-2-(((S)-4-methylmorpholin-2-yl)methoxy)pyrimidine-5-carbonitrile]",++ (++ indicates binding activity from 50 to 85%)
8,"C=CC(=O)N1CC2(CCN(c3nc(OC[C@@H]4CCCN4C)nc(-c4cc(O)cc5ccccc45)c3C#N)C2)C1 [Compound I-92, (S)-4-(2-acryloyl-2,6-diazaspiro[3.4]octan-6-yl)-6-(3-hydroxynaphthalen-1-yl)-2-((1-methylpyrrolidin-2-yl)methoxy)pyrimidine-5-carbonitrile]",++ (++ indicates binding activity from 50 to 85%)
9,"C=CC(=O)N1CC2(CCN(c3nc(OCc4ccccn4)nc(-c4c(C)ccc5cn[nH]c45)c3C#N)C2)C1 [Compound I-93, 4-(2-acryloyl-2,6-diazaspiro[3.4]octan-6-yl)-6-(6-methyl-1H-indazol-7-yl)-2-(pyridin-2-ylmethoxy)pyrimidine-5-carbonitrile]",+++ (+++ indicates binding activity greater than 85%)
10,"C=CC(=O)N1CC2(CCN(c3nc(OC[C@@H]4CCCN4C)nc(-c4cc(C(N)=O)ccc4F)c3C#N)C2)C1 [Compound I-94, (S)-3-(6-(2-acryloyl-2,6-diazaspiro[3.4]octan-6-yl)-5-cyano-2-((1-methylpyrrolidin-2-yl)methoxy)pyrimidin-4-yl)-4-fluorobenzamide]",+ (+ indicates binding activity greater than 0% and up to 50%)
11,"C=CC(=O)N1CC2(CCN(c3nc(N4CCOCC4)nc(-c4cccc5[nH]ncc45)c3C#N)C2)C1 [Compound I-95, 4-(2-acryloyl-2,6-diazaspiro[3.4]octan-6-yl)-6-(1H-indazol-4-yl)-2-morpholinopyrimidine-5-carbonitrile]",+ (+ indicates binding activity greater than 0% and up to 50%)
12,"C=CC(=O)N1CC2(CCN(c3nc(N4CCOCC4)nc(-c4c(C)ccc5[nH]nc(C)c45)c3C#N)C2)C1 [Compound I-96, 4-(2-acryloyl-2,6-diazaspiro[3.4]octan-6-yl)-6-(3,5-dimethyl-1H-indazol-4-yl)-2-morpholinopyrimidine-5-carbonitrile]",+++ (+++ indicates binding activity greater than 85%)
13,"C=CC(=O)N1CC2(CCN(c3nc(N4CCOCC4)nc(-c4c(C)ccc5cnn(C6CC6)c45)c3C#N)C2)C1 [Compound I-97, 4-(2-acryloyl-2,6-diazaspiro[3.4]octan-6-yl)-6-(1-cyclopropyl-6-methyl-1H-indazol-7-yl)-2-morpholinopyrimidine-5-carbonitrile]",+ (+ indicates binding activity greater than 0% and up to 50%)
14,"C/C=C/C(=O)N1CC2(CCN(c3nc(OCc4ccccn4)nc(-c4c(C)ccc5[nH]ncc45)c3C#N)C2)C1 [Compound I-98, (E)-4-(2-(but-2-enoyl)-2,6-diazaspiro[3.4]octan-6-yl)-6-(5-methyl-1H-indazol-4-yl)-2-(pyridin-2-ylmethoxy)pyrimidine-5-carbonitrile]",+ (+ indicates binding activity greater than 0% and up to 50%)
15,"CC#CC(=O)N1CC2(CCN(c3nc(OCc4ccccn4)nc(-c4c(C)ccc5[nH]ncc45)c3C#N)C2)C1 [Compound I-99, 4-(2-(but-2-ynoyl)-2,6-diazaspiro[3.4]octan-6-yl)-6-(5-methyl-1H-indazol-4-yl)-2-(pyridin-2-ylmethoxy)pyrimidine-5-carbonitrile]",+ (+ indicates binding activity greater than 0% and up to 50%)
16,"C=CC(=O)N1CC2(CCN(c3nc(N4CCOCC4)nc(-c4cccc5ccccc45)c3C#N)C2)C1 [Compound I-100, 4-(2-acryloyl-2,6-diazaspiro[3.4]octan-6-yl)-2-morpholino-6-(naphthalen-1-yl)pyrimidine-5-carbonitrile]",+ (+ indicates binding activity greater than 0% and up to 50%)
17,"C=CC(=O)N1CC2(CCN(c3nc(OC[C@@H]4CCCN4C)nc(-c4cccc5ccccc45)c3C#N)C2)C1 [Compound I-101, (S)-4-(2-acryloyl-2,6-diazaspiro[3.4]octan-6-yl)-2-((1-methylpyrrolidin-2-yl)methoxy)-6-(naphthalen-1-yl)pyrimidine-5-carbonitrile]",+ (+ indicates binding activity greater than 0% and up to 50%)
18,"C=CC(=O)N1CC2(CCN(c3nc(OCc4ccccn4)nc(-c4c(C)ccc5cnn(C)c45)c3C#N)C2)C1 [Compound I-102, 4-(2-acryloyl-2,6-diazaspiro[3.4]octan-6-yl)-6-(1,6-dimethyl-1H-indazol-7-yl)-2-(pyridin-2-ylmethoxy)pyrimidine-5-carbonitrile]",++ (++ indicates binding activity from 50 to 85%)
19,"C=CC(=O)N1CC2(CCN(c3nc(OC[C@@H]4CCCN4C)nc(-c4c(C)ccc5cnn(C6CC6)c45)c3C#N)C2)C1 [Compound I-103, 4-(2-acryloyl-2,6-diazaspiro[3.4]octan-6-yl)-6-(1-cyclopropyl-6-methyl-1H-indazol-7-yl)-2-(((S)-1-methylpyrrolidin-2-yl)methoxy)pyrimidine-5-carbonitrile]",+ (+ indicates binding activity greater than 0% and up to 50%)
20,"CC#CC(=O)N1CC2(CCN(c3nc(OC[C@@H]4CCCN4C)nc(-c4c(C)ccc5[nH]ncc45)c3C#N)C2)C1 [Compound I-104, 4-(2-(but-2-ynoyl)-2,6-diazaspiro[3.4]octan-6-yl)-6-(5-methyl-1H-indazol-4-yl)-2-(((S)-1-methylpyrrolidin-2-yl)methoxy)pyrimidine-5-carbontrile]",+ (+ indicates binding activity greater than 0% and up to 50%)
21,"C/C=C/C(=O)N1CC2(CCN(c3nc(OC[C@@H]4CCCN4C)nc(-c4c(C)ccc5[nH]ncc45)c3C#N)C2)C1 [Compound I-105, 4-(2-((E)-but-2-enoyl)-2,6-diazaspiro[3.4]octan-6-yl)-6-(5-methyl-1H-indazol-4-yl)-2-(((S)-1-methylpyrrolidin-2-yl)methoxy)pyrimidine-5-carbonitrile]",+ (+ indicates binding activity greater than 0% and up to 50%)
22,"C=CC(=O)N1CC2(CCN(c3nc(OCc4ccccn4)nc(-c4c(C)ccc5cnn(C6CC6)c45)c3C#N)C2)C1 [Compound I-106, 4-(2-acryloyl-2,6-diazaspiro[3.4]octan-6-yl)-6-(1-cyclopropyl-6-methyl-1H-indazol-7-yl)-2-(pyridin-2-ylmethoxy)pyrimidine-5-carbontrile]",+ (+ indicates binding activity greater than 0% and up to 50%)
23,"C=CC(=O)N1CC2(CCN(c3nc(OC[C@@H]4CCCN4C)nc(-c4ccccc4-c4cn[nH]c4)c3C#N)C2)C1 [Compound I-107, (S)-4-(2-(1H-pyrazol-4-yl)phenyl)-6-(2-acryloyl-2,6-diazaspiro[3.4]octan-6-yl)-2-((1-methylpyrrolidin-2-yl)methoxy)pyrimidine-5-carbonitrile]",+ (+ indicates binding activity greater than 0% and up to 50%)
24,"C=CC(=O)N1CC2(CCN(c3nc(OC[C@@H]4CCCN4C)nc(-c4c(C)ccc5[nH]nc(N)c45)c3C#N)C2)C1 [Compound I-108, 4-(2-acryloyl-2,6-diazaspiro[3.4]octan-6-yl)-6-(3-amino-5-methyl-1H-indazol-4-yl)-2-(((S)-1-methylpyrrolidin-2-yl)methoxy)pyrimidine-5-carbonitrile]",++ (++ indicates binding activity from 50 to 85%)

# Source: US12134620B2 (ARAXES PHARMA LLC, priority 2018, dated 2024)
